According to PubChem BioAssay AID2060356 (Molecular Pharmacology Branch, DTP, NCI, 2025):
pIC50: −log10 of the molar value. Several values for one entry are separate records, joined by “and”; a condition that tells them apart may be missing. Equal entries are not always repeated.

Test system: PDC tumor spheroids with HUVEC/MSC, viability
Experiment: Anticancer human tumor 439559-082-T-J2-PDC patient-derived colon adenocarcinoma cell line growth inhibition [TAK]
Details: for viability, T/C: stronger effect = lower value
From the text: Combinatorial screen of targeted agents with TAK-243 and ipatasertib in multi-cell type tumor spheroids
A high-throughput screen of multi-cell type tumor spheroids was designed to identify active combinations of targeted small molecules and TAK-243 or ipatasertib. Complex spheroids include a stromal component modeled by human endothelial cells (HUVEC) and fibroblasts modeled by human mesenchymal stem cells (MSCs). The concentration ranges selected for each drug and investigational agent were based upon clinically achievable concentrations if the clinical Cmax of the agent was known.
Compounds. The drugs and investigational agents: TAK-243 (785004), ipatasertib (767898), everolimus (733504), selumetinib (741078), bortezomib (756655), trametinib (758246), ixazomib (758254), vemurafenib (761431), dabrafenib (764134), sapanisertib (764658), alpelisib (765974), and copanlisib (816437), were obtained from the National Cancer Institute (NCI) Developmental Therapeutics Program Chemical Repository. The FDA-approved anticancer drug set is available from the NCI Developmental Therapeutics Program. […] The stock solutions were prepared in dimethyl sulfoxide (DMSO, Sigma-Aldrich, St. Louis, MO, cat. D2650) at 800-fold the tested concentration and stored at -70 degrees C prior to their use. All drugs and investigational agents were tested over a range starting from a high concentration at or near the clinical Cmax and decreasing in half-log increments. If the clinical Cmax for an agent had not been determined, the highest concentration tested was 10 microM.
NCI60 Cell Culture. NCI60 cell lines were obtained from the NCI Developmental Therapeutics Program Tumor Repository. For each lot of cells, the Repository performed Applied Biosystems AmpFLSTR Identifiler testing with PCR amplification to confirm consistency with the published Identifier STR profile for each cell line. Cells were kept in continuous culture for no more than 20 passages. The optimal seeding densities for each of the cell lines at each time point assessed were determined prior to performing the concentration response studies. Briefly, the NCI60 human tumor lines were grown as monolayers in RPMI 1640 medium supplemented with 10% FBS and 2 mmol/L L-glutamine.
An additional 2 lines were from the NCI60 cell line panel including melanomas, MALME-3M and SK-MEL-2. Pooled donor human umbilical vein endothelial cells (HUVEC, Lonza, cat. CC-2519) and human mesenchymal stem cells (hMSC, Lonza, cat. PT-2501) were purchased from Lonza (Walkersville, MD).
PDMR cell lines were grown in complete medium (DC medium): Dulbecco's modified Eagle's medium (DMEM)/F12 supplemented with 5% fetal bovine serum (FBS), 2 mM L-glutamine, 100 U/mL penicillin and 100 µg/ml streptomycin, 0.4 µg/ml hydrocortisone, 10 ng/ml epidermal growth factor (EGF) recombinant human protein, 24 µg/mL adenine, and 0.1 mg/mL primocin. During culture from frozen stock vials, PDMR cells were cultured in the same medium containing 10 µM Y-27632 (see Table 3). The PDCs were cultured in complete DMEM/F12 media without 10 microM Y-27632 dihydrochloride for at least two passages prior to the screen. The pooled donor HUVEC and hMSC were cultured in endothelial cell growth medium 2 (PromoCell, Heidelberg, Germany, cat. C-22011) and mesenchymal stem cell growth medium 2 (PromoCell, cat. C-28009), respectively. For all experiments, HUVEC and hMSC were used at passages </=5.
For the pre-screen, cell seeding densities were determined from a titration spanning the range from 5,000 to 313 cells per well. The mct-spheroids including 60% malignant cells, 25% HUVEC and 15% MSC dispensed as a mixture into U-bottom Ultra-Low Attachment 384-well plates (Corning, NY)
High-throughput Drug Combination Screening.
Prior to their inoculation into 384-well plates, malignant cells, HUVEC, and hMSC were removed from T flasks using TrypLE express (Thermo Fisher Scientific, cat. 12605036) and harvested by centrifugation for 5 min at 233 x g. […]

[1] = curve of first compound, second compound 0.3 µM
[2] = curve of first compound, second compound 0.949 µM
[3] = curve of first compound, second compound 3 µM
[4] = curve of first compound, second compound 9.49 µM
[5] = curve of first compound, second compound 30 µM
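Also: spheroids exposed to drugs for seven days before readout.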

**Q.** How did the pIC50 [1] turn out when `Cn1cnc2c(F)c(Nc3ccc(Br)cc3Cl)c(C(=O)NOCCO)cc21` + CC(C)NCC(C(=O)N1CCN(c2ncnc3c2C(C)CC3O)CC1)c1ccc(Cl)cc1 was run?
**A.** Its pIC50 is under 5.52.

**Q.** And the pIC50 [2]?
**A.** Its pIC50 is under 5.52.

**Q.** And the pIC50 [3]?
**A.** Its pIC50 is under 5.52.

**Q.** And the pIC50 [4]?
**A.** Its pIC50 is under 5.52.

**Q.** What about the pIC50 [5] of the same molecule?
**A.** The pIC50 was under 5.52.

**Q.** What about the viability, T/C (second compound 0.3 µM, first compound 0.00949 µM) of the same molecule?
**A.** Its viability, T/C is 92.4%.

**Q.** And the viability, T/C (second compound 0.3 µM, first compound 0.03 µM)?
**A.** Its viability, T/C is 82.1%.

**Q.** What about the viability, T/C (second compound 0.3 µM, first compound 0.0949 µM) of the same molecule?
**A.** The viability, T/C was 80.9%.

**Q.** What about the viability, T/C (second compound 0.3 µM, first compound 0.3 µM) of the same molecule?
**A.** Its viability, T/C is 76.3%.

**Q.** And the viability, T/C (second compound 0.3 µM, first compound 0.949 µM)?
**A.** The viability, T/C was 68.9%.

**Q.** What about the viability, T/C (second compound 0.3 µM, first compound 3 µM) of the same molecule?
**A.** The viability, T/C was 65.7%.

**Q.** And the viability, T/C (second compound 0.949 µM, first compound 0.00949 µM)?
**A.** Its viability, T/C is 104%.

**Q.** And the viability, T/C (second compound 0.949 µM, first compound 0.03 µM)?
**A.** Its viability, T/C is 97.4%.

**Q.** And the viability, T/C (second compound 0.949 µM, first compound 0.0949 µM)?
**A.** Its viability, T/C is 81%.

**Q.** What about the viability, T/C (second compound 0.949 µM, first compound 0.3 µM) of the same molecule?
**A.** The viability, T/C was 77.2%.

**Q.** What about the viability, T/C (second compound 0.949 µM, first compound 0.949 µM) of the same molecule?
**A.** Its viability, T/C is 67.9%.

**Q.** And the viability, T/C (second compound 0.949 µM, first compound 3 µM)?
**A.** Its viability, T/C is 69.4%.

**Q.** And the viability, T/C (second compound 3 µM, first compound 0.00949 µM)?
**A.** Its viability, T/C is 102%.

**Q.** And the viability, T/C (second compound 3 µM, first compound 0.03 µM)?
**A.** The viability, T/C was 99.8%.

**Q.** And the viability, T/C (second compound 3 µM, first compound 0.0949 µM)?
**A.** The viability, T/C was 80.2%.

**Q.** And the viability, T/C (second compound 3 µM, first compound 0.3 µM)?
**A.** The viability, T/C was 68.2%.

**Q.** And the viability, T/C (second compound 3 µM, first compound 0.949 µM)?
**A.** Its viability, T/C is 72%.

**Q.** What about the viability, T/C (second compound 3 µM, first compound 3 µM) of the same molecule?
**A.** The viability, T/C was 63.3%.

**Q.** What about the viability, T/C (second compound 9.49 µM, first compound 0.00949 µM) of the same molecule?
**A.** The viability, T/C was 99.2%.

**Q.** What about the viability, T/C (second compound 9.49 µM, first compound 0.03 µM) of the same molecule?
**A.** The viability, T/C was 91.7%.

**Q.** What about the viability, T/C (second compound 9.49 µM, first compound 0.0949 µM) of the same molecule?
**A.** The viability, T/C was 83.9%.

**Q.** What about the viability, T/C (second compound 9.49 µM, first compound 0.3 µM) of the same molecule?
**A.** Its viability, T/C is 72%.

**Q.** What about the viability, T/C (second compound 9.49 µM, first compound 0.949 µM) of the same molecule?
**A.** The viability, T/C was 70.5%.

**Q.** And the viability, T/C (second compound 9.49 µM, first compound 3 µM)?
**A.** The viability, T/C was 64.7%.

**Q.** And the viability, T/C (second compound 30 µM, first compound 0.00949 µM)?
**A.** Its viability, T/C is 93.6%.

**Q.** And the viability, T/C (second compound 30 µM, first compound 0.03 µM)?
**A.** The viability, T/C was 89.7%.

**Q.** And the viability, T/C (second compound 30 µM, first compound 0.0949 µM)?
**A.** Its viability, T/C is 85.4%.

**Q.** What about the viability, T/C (second compound 30 µM, first compound 0.3 µM) of the same molecule?
**A.** The viability, T/C was 75.2%.

**Q.** What about the viability, T/C (second compound 30 µM, first compound 0.949 µM) of the same molecule?
**A.** The viability, T/C was 69.5%.

**Q.** What about the viability, T/C (second compound 30 µM, first compound 3 µM) of the same molecule?
**A.** Its viability, T/C is 66.3%.

**Q.** Which results are given for `CC(C)NCC(C(=O)N1CCN(c2ncnc3c2C(C)CC3O)CC1)c1ccc(Cl)cc1` (stereo not drawn)?
**A.** viability, T/C (compound 0.3 µM): 101% [middle of 10 runs]; viability, T/C (compound 0.949 µM): 94% [middle of 10 runs]; viability, T/C (compound 3 µM): 83.6% [middle of 10 runs]; viability, T/C (compound 9.49 µM): 80.9% [middle of 10 runs]; viability, T/C (compound 30 µM): 85.8% [middle of 10 runs]; pIC50 (compound alone, run of 02/28/2020): < 4.52

**Q.** What does the source list for `CCCS(=O)(=O)Nc1ccc(F)c(C(=O)c2c[nH]c3ncc(-c4ccc(Cl)cc4)cc23)c1F`?
**A.** viability, T/C (compound 0.316 µM): 114% and 106%; viability, T/C (compound 1 µM): 109% and 102%; viability, T/C (compound 3.16 µM): 97.3% and 102%; viability, T/C (compound 10 µM): 87.2% and 71.7%; viability, T/C (compound 31.6 µM): 103% and 94.9%; viability, T/C (compound 100 µM): 93.9% and 95.7%; pIC50 (curve of compound): < 4.00

**Q.** Which results are given for `CC(C)n1nc(-c2ccc3oc(N)nc3c2)c2c(N)ncnc21` + CC(C)NCC(C(=O)N1CCN(c2ncnc3c2C(C)CC3O)CC1)c1ccc(Cl)cc1?
**A.** pIC50 [1]: < 7.00; pIC50 [2]: < 7.00; pIC50 [3]: < 7.00; pIC50 [4]: < 7.00; pIC50 [5]: < 7.00; viability, T/C (second compound 0.3 µM, first compound 0.000316 µM): 109%; viability, T/C (second compound 0.3 µM, first compound 0.001 µM): 98.8%; viability, T/C (second compound 0.3 µM, first compound 0.00316 µM): 96.5%; viability, T/C (second compound 0.3 µM, first compound 0.01 µM): 80.4%; viability, T/C (second compound 0.3 µM, first compound 0.0316 µM): 73.1%; viability, T/C (second compound 0.3 µM, first compound 0.1 µM): 71.2%; viability, T/C (second compound 0.949 µM, first compound 0.000316 µM): 106%; viability, T/C (second compound 0.949 µM, first compound 0.001 µM): 101%; viability, T/C (second compound 0.949 µM, first compound 0.00316 µM): 83%; viability, T/C (second compound 0.949 µM, first compound 0.01 µM): 85%; viability, T/C (second compound 0.949 µM, first compound 0.0316 µM): 76%; viability, T/C (second compound 0.949 µM, first compound 0.1 µM): 68%; viability, T/C (second compound 3 µM, first compound 0.000316 µM): 101%; viability, T/C (second compound 3 µM, first compound 0.001 µM): 91.8%; viability, T/C (second compound 3 µM, first compound 0.00316 µM): 80.8%; viability, T/C (second compound 3 µM, first compound 0.01 µM): 82%; viability, T/C (second compound 3 µM, first compound 0.0316 µM): 73.7%; viability, T/C (second compound 3 µM, first compound 0.1 µM): 71.8%; viability, T/C (second compound 9.49 µM, first compound 0.000316 µM): 89.5%; viability, T/C (second compound 9.49 µM, first compound 0.001 µM): 94.6%; viability, T/C (second compound 9.49 µM, first compound 0.00316 µM): 84.1%; viability, T/C (second compound 9.49 µM, first compound 0.01 µM): 78.7%; viability, T/C (second compound 9.49 µM, first compound 0.0316 µM): 69.9%; viability, T/C (second compound 9.49 µM, first compound 0.1 µM): 66.8%; viability, T/C (second compound 30 µM, first compound 0.000316 µM): 88.6%; viability, T/C (second compound 30 µM, first compound 0.001 µM): 91.1%; viability, T/C (second compound 30 µM, first compound 0.00316 µM): 87.8%; viability, T/C (second compound 30 µM, first compound 0.01 µM): 75%; viability, T/C (second compound 30 µM, first compound 0.0316 µM): 73.3%; viability, T/C (second compound 30 µM, first compound 0.1 µM): 70.3%
